Experimental data: US8999983B2, “Modulators of Hec1 activity and methods therefor” (Taivex Therapeutics Corporation, priority 2011, dated 2015)
Read-outs that look alike come from different tables or passages of the source.

Key:
Assay type in all cases: cell-based
MDA-MB-231 = assay: Antiproliferation assay (MTS), MDA-MB-231 cells; conditions: Homo sapiens, MDA-MB-231, 96 h, read-out: Antiproliferative IC50 MDA-MB-231, Table 1
Method: (§1) Cells were grown at 37° C. in a humidified atmosphere consisting of 5% CO2 and 95% air.
(§2) Antiproliferation Assays: Cells were plated in a 96-well culture plate with 2000-8000 cells per well. The compounds were prepared in DMSO and used to treat cells in a final concentration of less than 1% DMSO. Compound treatment started after overnight incubation of cells (T0). […] Compound was added to the plate in triplicate wells, and the plates were then incubated for 96 hours. DMSO (compound diluent) was also included and added to the plate in control wells. Cell viability was then determined by MTS assay using the CellTiter 96® aqueous non-radioactive cell proliferation assay system (Promega, Madison, Wis. 53711 USA). A plate reader (Vmax, Molecular Devices, Sunnyvale Calif. 94089 USA) was used to determine the optical densities, and the results were used to deduce concentration-response curves. […] The results were analyzed using linear regression software (GraphPad Prism 5; GraphPad Software Inc. La Jolla Calif. 92037 USA).

K562 = assay: Antiproliferation assay (MTS), K562 cells; conditions: Homo sapiens, K562, 96 h
Method: as §1, §2

MDA-MB-468 = assay: Antiproliferation assay (MTS), MDA-MB-468 cells; conditions: Homo sapiens, MDA-MB-468, 96 h
Method: as §1, §2

Hela = assay: Antiproliferation assay (MTS), HeLa cells; conditions: Homo sapiens, 96 h
Method: as §1, §2

[1] = Table 1, read-out: Antiproliferative IC50 K562
[2] = Table 1, read-out: Antiproliferative IC50 MDA-MB-468
[3] = Table 1, read-out: Antiproliferative IC50 Hela
[4] = Table 2, read-out: Antiproliferative IC50 Hela

IC50 (MDA-MB-231)	IC50 (K562; [1])	IC50 (MDA-MB-468; [2])	IC50 (Hela; [3])	IC50 (Hela; [4])	IC50 (K562; Table 2, read-out: Antiproliferative IC50 K562)	IC50 (MDA-MB-468; Table 2, read-out: Antiproliferative IC50 MDA-MB-468)	Structure (SMILES)
144 nM	86.7 nM	167 nM	251 nM	–	–	–	Cc1cc(N(C)C)cc(C)c1-c1csc(NC(=O)c2ccncc2)n1 [Compound 1, N-{4-(4-(Dimethylamino)-2,6-dimethylphenyl)thiazol-2-yl}isonicotinamide]
713 nM	366 nM	661 nM	1020 nM	–	–	–	Cc1cc(Oc2ncccn2)cc(C)c1-c1csc(NC(=O)c2ccncc2)n1 [Compound 6, N-{4-(2,6-Dimethyl-4-(pyrimidin-2-yloxy)phenyl)thiazol-2-yl}isonicotinamide]
161 nM	92 nM	191 nM	217 nM	–	–	–	Cc1cc(Oc2cnccn2)cc(C)c1-c1csc(NC(=O)c2ccncc2)n1 [Compound 7, N-{4-(2,6-Dimethyl-4-(pyrazin-2-yloxy)phenyl)thiazol-2-yl}isonicotinamide]
65.8 nM	39.1 nM	48.4 nM	81.6 nM	–	–	–	COc1ccc(Oc2cc(C)c(-c3csc(NC(=O)c4ccncc4)n3)c(C)c2)cn1 [Compound 9, N-{4-(4-(6-Methoxypyridin-3-yloxy)-2,6-dimethylphenyl)thiazol-2-yl}isonicotinamide]
386 nM	247 nM	1020 nM	375 nM	–	–	–	COc1cc(F)c(-c2csc(NC(=O)c3ccncc3)n2)c(Cl)c1 [Compound 13, N-(4-(2-Chloro-6-fluoro-4-methoxyphenyl)thiazol-2-yl)isonicotinamide]
181 nM	148 nM	158 nM	73.8 nM	–	–	–	Cc1cc(Oc2ccc([N+](=O)[O-])nc2)cc(C)c1-c1csc(NC(=O)c2ccncc2)n1 [Compound 24, N-{4-(2,6-Dimethyl-4-(6-nitropyridin-3-yloxy)phenyl)thiazol-2-yl}isonicotinamide]
99.4 nM	64.4 nM	132 nM	84.8 nM	–	–	–	Cc1cc(Oc2ccc(Oc3ccccc3)cc2)cc(C)c1-c1csc(NC(=O)c2ccncc2)n1 [Compound 26, N-{4-(2,6-Dimethyl-4-(4-phenoxyphenoxy)phenyl)thiazol-2-yl}isonicotinamide]
124 nM	59.2 nM	74.5 nM	32.8 nM	–	–	–	Cc1cc(Sc2cnc(OCCN(C)C)cn2)cc(C)c1-c1csc(NC(=O)c2ccncc2)n1 [Compound 28, N-(4-(4-{5-(2-(Dimethylamino)ethoxy)pyrazin-2-ylthio}-2,6-dimethylphenyl)thiazol-2-yl)isonicotinamide]
1110 nM	–	2170 nM	–	–	–	–	Cc1cc(C)c(-c2csc(NC(=O)/C=C/c3cccnc3)n2)c(C)c1 [Compound 50, (E)-N-(4-Mesitylthiazol-2-yl)-3-(pyridin-3-yl)acrylamide]
717 nM	362 nM	–	2130 nM	–	–	–	Cc1cc(Nc2ccc(Br)cc2)cc(C)c1-c1csc(NC(=O)c2ccncc2)n1 [Compound 52, N-(4-(4-(4-Bromophenylamino)-2,6-dimethylphenyl)thiazol-2-yl)isonicotinamide]
–	–	–	–	> 10000 nM	–	–	COc1cc(C)c(-c2csc(NC(=O)Nc3ccncc3)n2)c(C)c1 [II-67, 1-(4-(4-Methoxy-2,6-dimethylphenyl)thiazol-2-yl)-3-(pyridin-4-yl)urea]
–	–	–	–	> 10000 nM	2480 nM	–	Cc1cc(C)c(-c2csc(NC(=O)/C=C/c3cccnc3)n2)c(C)c1 [II-103, (E)-N-(4-Mesitylthiazol-2-yl)-3-(pyridin-3-yl)acrylamide]
–	–	–	–	–	–	1220 nM	Cc1cc(Nc2ccc(Br)cc2)cc(C)c1-c1csc(NC(=O)c2ccncc2)n1 [II-122, N-(4-(4-(4-Bromophenylamino)-2,6-dimethylphenyl)thiazol-2-yl)isonicotinamide]

Second part, the compound before the results:

Structure (SMILES)	IC50 (MDA-MB-231)	IC50 (K562; [1])	IC50 (MDA-MB-468; [2])	IC50 (Hela; [3])	IC50 (Hela; [4])	IC50 (K562; Table 2, read-out: Antiproliferative IC50 K562)	IC50 (MDA-MB-468; Table 2, read-out: Antiproliferative IC50 MDA-MB-468)
COc1ccc(Oc2cc(C)c(-c3nc(NC(=O)c4ccncc4)sc3Br)c(C)c2)cc1 [Compound 2, N-{5-Bromo-4-(4-(4-methoxyphenoxy)-2,6-dimethylphenyl)thiazol-2-yl}isonicotinamide]	484 nM	273 nM	594 nM	660 nM	–	–	–
COc1ccc(Sc2cc(C)c(-c3csc(NC(=O)c4ccncc4)n3)c(Cl)c2)cc1 [Compound 3, N-{4-(2-Chloro-4-(4-methoxyphenylsulfanyl)-6-methylphenyl)thiazol-2-yl}isonicotinamide]	28.2 nM	23.4 nM	27 nM	26.9 nM	–	–	–
Cc1cc(OCC2CC2)cc(C)c1-c1csc(NC(=O)c2ccncc2)n1 [Compound 4, N-{4-(4-(Cyclopropylmethoxy)-2,6-dimethylphenyl)thiazol-2-yl}isonicotinamide]	157 nM	206 nM	245 nM	281 nM	–	–	–
Cc1cc(Oc2ccc(O)nc2)cc(C)c1-c1csc(NC(=O)c2ccncc2)n1 [Compound 5, N-{4-(4-(6-Hydroxypyridin-3-yloxy)-2,6-dimethylphenyl)thiazol-2-yl}isonicotinamide]	1240 nM	563 nM	1010 nM	903 nM	–	–	–
COc1cnc(Oc2cc(C)c(-c3csc(NC(=O)c4ccncc4)n3)c(C)c2)nc1 [Compound 8, N-{4-(4-(5-Methoxypyrimidin-2-yloxy)-2,6-dimethylphenyl)thiazol-2-yl}isonicotinamide]	121 nM	71.8 nM	85.4 nM	130 nM	–	–	–
COc1cc(Cl)c(-c2csc(NC(=O)c3ccncc3)n2)c(Cl)c1 [Compound 10, N-(4-(2,6-Dichloro-4-methoxyphenyl)thiazol-2-yl)isonicotinamide]	2330 nM	633 nM	6550 nM	4430 nM	–	–	–
Cc1cc(Sc2cnccn2)cc(C)c1-c1csc(NC(=O)c2ccncc2)n1 [Compound 11, N-{4-(2,6-Dimethyl-4-(pyrazin-2-ylthio)phenyl)thiazol-2-yl}isonicotinamide]	47.4 nM	38.2 nM	52.4 nM	33.4 nM	–	–	–
COc1cc(F)cc(Cl)c1-c1csc(NC(=O)c2ccncc2)n1 [Compound 14, N-(4-(2-Chloro-4-fluoro-6-methoxyphenyl)thiazol-2-yl)isonicotinamide]	6350 nM	3690 nM	9430 nM	2990 nM	–	–	–
Cc1cc(Oc2ccc(OC(C)C)cc2)cc(C)c1-c1csc(NC(=O)c2ccncc2)n1 [Compound 16, N-{4-(4-(4-Isopropoxyphenoxy)-2,6-dimethylphenyl)thiazol-2-yl}isonicotinamide]	80.7 nM	59.2 nM	69.7 nM	80.1 nM	–	–	–
COc1ccc(Oc2cc(C)c(-c3csc(NC(=O)c4ccncc4)n3)c(C)c2)nc1 [Compound 18, N-(4-{4-((5-Methoxypyridin-2-yl)oxy)-2,6-dimethylphenyl}thiazol-2-yl)isonicotinamide]	40.8 nM	43.7 nM	49.4 nM	40.6 nM	–	–	–
Cc1cc(OCCN(C)C)cc(C)c1-c1csc(NC(=O)c2ccncc2)n1 [Compound 23, N-(4-{4-(2-(Dimethylamino)ethoxy)-2,6-dimethylphenyl}thiazol-2-yl)isonicotinamide]	> 10000 nM	> 10000 nM	> 10000 nM	> 10000 nM	–	–	–
COc1cc(C)c(-c2csc(NC(=O)Nc3ccncc3)n2)c(C)c1 [Compound 45, 1-(4-(4-Methoxy-2,6-dimethylphenyl)thiazol-2-yl)-3-(pyridin-4-yl)urea]	628 nM	486 nM	615 nM	–	–	–	–
